Experimental data reported in patent EP4745242A1, “NUCLEIC ACID VECTOR, NUCLEIC ACID DRUG, PREPARATION METHOD THEREFOR, AND USE THEREOF” (Bai Yao Zhi Da (Beijing) Nanobio Technology Co., Ltd., priority 2023, dated 2025).

Test: Example 41: body weight and clinical observations
Assay type: in vivo, BALB/cCrSlcNifdc mice
Settings: for Individual animal body weight: single mouse per group
Experimental: • a) General clinical observations: The clinical condition of mice was observed three times per week during the study, including assessment of tumor nodule ulceration, general appearance/behavior, coat condition, and food intake. • b) Body weight: Mouse body weight was recorded three times per week. • c) Tumor volume: Tumor volume was measured three times per week using vernier calipers. The longest diameter (length) and the perpendicular short diameter (width) were measured, and tumor volume was calculated as: Volume = 0.5 × length × (short diameter)^2. […] The tumor-weight inhibition rate (IRTW, %) was calculated, taking IRTW% > 60% as a reference indicator of efficacy. The calculation is as follows: IRTW(%) = (Wvehicle control−Wtreatment)/Wvehicle control × 100, [formula] where W denotes tumor weight.

COc1cccc2c1C(=O)c1c(O)c3c(c(O)c1C2=O)C[C@@](O)(C(=O)CO)C[C@@H]3O[C@H]1C[C@H](N)[C@@H](O)[C@H](C)O1 [F, epirubicin]
Animal body weight, D26 (one animal per group, D26, 26 days after tumor cell injection, in g (unit assumed)): 26.81
Change in body weight (g) (one animal per group, before administration to D26): +6.39 g
Animal body weight, Before administration (one animal per group, tail-vein injection once weekly, total 2 administrations, before administration): 20.42
Individual animal body weight (DAY 12, in g (unit assumed)): 20.42
Individual animal body weight (DAY 14, in g (unit assumed)): 22.15
Individual animal body weight (DAY 17, in g (unit assumed)): 23.68
Individual animal body weight (DAY 19, in g (unit assumed)): 25.41
Individual animal body weight (DAY 21, in g (unit assumed)): 26.51
Individual animal body weight (DAY 24, in g (unit assumed)): 29.19
Individual animal body weight (DAY 26, in g (unit assumed)): 26.81
